This is an account of results in patent publication US8821875B2, “Pharmaceutical composition comprising antibodies against catalase and superoxide dismutase for tumor therapy” (Universitaetsklinikum Freiburg, priority 2011, dated 2014).

Test [1] concerns human Ewing's sarcoma line SKN-MC. The test is described as follows: Induction of apoptosis in Ewing's sarcoma line SKN-MC and inhibitor analysis. The test is classed as cell-based. To be noted: 3 hours, inhibitor concentrations; for effect of inhibitor on anti-catalase-induced apoptosis: FIG. 13A; for effect of inhibitor on anti-SOD-induced apoptosis: FIG. 13B. On the procedure:
To 12 500 cells of the human neuroblastoma line SHEP and the human Ewing's sarcoma line SKN-MC in […] EMEM plus 5% FBS the given concentrations of anti-catalase and anti-SOD, respectively, were added. The percentages of apoptotic cells were determined after 5 hours (SHEP) and 5.5 hours (SKNMC), respectively.
To 10 000 cells of the human Ewing's sarcoma line SKN-MC in […] EMEM plus 5% FBS the given inhibitors and the concentrations of anti-catalase and anti-SOD, respectively, plotted in the abscissa were added. The percentages of apoptotic cells were determined after 3 hours.
Inhibitors: 50 mM taurine (HOCl scavenger); […] (peroxynitrite decomposition catalyst); 1000 U/ml catalase from ox liver; 40 mM MnTE2PyP(SOD mimetic); 90 U/ml MnSOD; 20 mM 3-Br-7-nitroindazole (nNOS specific inhibitor).

The subject of test [2] is MKN-45 cells. Nature of the test: Inhibitor analysis of antibody-induced apoptosis in MKN-45 cells (ROS signaling). The class given is cell-based, human. Conditions: for effect of inhibitor on apoptosis induced by monoclonal antibody against catalase: MKN-45, 2 hours, FIG. 8; for effect of inhibitor on anti-SOD-induced apoptosis: MKN-45, 6 hours, inhibitor concentrations of b79. On the procedure: To 12 500 MKN-45 cells in […] RPMI 1640 medium, 10% FBS the given concentrations of the monoclonal antibodies against catalase as well as the mentioned inhibitors were added and the incubation was continued for 2 hours at 37° C., 5% CO2, before in duplicates the percentages of apoptotic cells were determined.
To 12 500 MKN-45 cells in […] RPMI 1640 medium, 10% FBS the given concentrations of the monoclonal antibodies against catalase and the given concentrations of the salen-manganese complex EUK-134 (chloro[[2,2′-[1,2-ethanediylbis[(nitrilo-κN)methylidyne]]bis[6-methoxyphenolato-κO]]]-manganese) (a catalase mimetic) were added and the incubation was continued for 2.5 hours at 37° C., 5% CO2. Subsequently, the percentage of apoptotic cells (duplicates) was determined according to the conventional apoptosis criteria membrane blebbing, nuclear condensation and/or nuclear fragmentation.
To 12 500 MKN-45 cells in […] RPMI 1640 medium, 10% FBS the given concentrations of monoclonal antibodies against SOD and the given inhibitors were added and the incubation was continued for 6 hours at 37° C., 5% CO2. Subsequently, the percentage of apoptotic cells (duplicates) was determined according to the conventional apoptosis criteria membrane blebbing, nuclear condensation, and/or nuclear fragmentation.
Inhibitors: […] FeTPPS (peroxynitrite decomposition catalyst); 75 U/ml MnSOD; 50 mM taurine (HOCl scavenger); 2.4 mM L-NAME (NOS inhibitor).

Test [3] has as its system MKN-45 cells. The test is described as follows: Synergistic effect of anti-catalase and anti-SOD in induction of apoptosis in MKN-45 cells. To be noted: 2 mM histidine, MKN-45, 3 hours, FIG. 18. The test is classed as cell-based, human. The protocol: 12 500 MKN-45 cells in […] RPMI 1640 medium, 10% FBS received the given concentrations of anti-catalase. Control batches remained free of additional batches, batches for determination of the interaction additionally received 0.5 ng/ml or 2 ng/ml anti-SOD. The percentages of apoptotic cells were determined after 5.5 hours in duplicates.
This is unexpected and of great interest, since on its basis a considerable saving of antibodies could be achieved with the same effect. So, for example the combination of 2 ng/ml anti-SOD with 2 ng/ml anti-catalase results in 80 percent of the effect that can be achieved with 125 ng/ml of anti-catalase antibodies alone. 12 500 MKN-45 cells in […] RPMI 1640 medium, 10% FBS received the given concentrations of anti-catalase (control), anti-catalase plus 2 mM histidine (singlet oxygen scavenger), anti-catalase plus 1 ng/ml anti-SOD, anti-catalase/1 ng/ml anti-SOD/2 mM histidine. The percentages of apoptotic cells are determined after 3 hours in duplicates.
12 500 MKN-45 cells in […] RPMI 1640 medium, 10% FBS received the given concentrations of the Fab fragment AbD15562 directed against catalase. […] The percentages of apoptotic cells were determined after 3 hours in duplicates.

On to `O=[N+]([O-])c1cccc2c(Br)n[nH]c12` [3-Br-7-nitro-indazole, 3-bromo-7-nitroindazole], for which, in test [1], the “effect of inhibitor on anti-catalase-induced apoptosis” value was “inhibition” and the “effect of inhibitor on anti-SOD-induced apoptosis” value is given as “inhibition”.
As for `NCCc1ccc(S(=O)(=O)F)cc1` [AEBSF, 4-(2-aminoethyl)-benzenesulfonyl fluoride], the “effect of inhibitor on apoptosis induced by monoclonal antibody against catalase” value (“effect of inhibitor on apoptosis induced” for short) with MKN-45 cells [2] (inhibitor concentrations) is “inhibited”.
Take `COc1cccc(C=NCCN=Cc2cccc(OC)c2[O-])c1[O-].[Cl-].[Mn+3]` [EUK-134]: the “effect on anti-catalase-induced apoptosis” value in the test with MKN-45 cells [2] (0.25 μM EUK-134, middle concentration range of the antibody, FIG. 9) was “stronger inhibition”; in the test on MKN-45 cells [2] (0.25 mM EUK-134, lower concentration range of the antibodies, FIG. 9), “significant increase in apoptosis”; in the test with MKN-45 cells [2] (two next higher concentrations of EUK-134, middle concentration range of the antibody, FIG. 9) it was “complete inhibition of the HOCl pathway”. The “effect on concentration curve of anti-catalase-induced apoptosis” value in the test on MKN-45 cells [2] (0.06 and 0.125 mM EUK-134, MKN-45, 2.5 hours, FIG. 9) is reported as “change the optimum curve into a plateau curve”.
Turning to `Cl.O=S(=O)([O-])c1ccc(-c2c3nc(c(-c4ccc(S(=O)(=O)O)cc4)c4ccc([nH]4)c(-c4ccc(S(=O)(=O)O)cc4)c4nc(c(-c5ccc(S(=O)(=O)O)cc5)c5ccc2[nH]5)C=C4)C=C3)cc1.[Fe]` [FeTPPS, 5-, 10-, 15-, 20-tetrakis(4-sulfonatophenyl)porphyrinato iron(III) chloride], in test [1], the “effect of inhibitor on anti-catalase-induced apoptosis” value is recorded as “inhibition” and the “effect of inhibitor on anti-SOD-induced apoptosis” value was “inhibition”. Also, the “effect of inhibitor on apoptosis induced” value in the test on MKN-45 cells [2] (inhibitor concentrations) is “inhibited in the lower concentration range of the antibody”. Besides, the “effect of inhibitor on anti-SOD-induced apoptosis” value in the test with MKN-45 cells [2] (FIG. 10) was “inhibition”.
For the molecule `COC(=O)[C@@H](N)CCCNC(=N)N[N+](=O)[O-].Cl` [L-NAME, N-ω-nitro-L-arginine methylester hydrochloride], the “effect of inhibitor on apoptosis induced” value in the test with MKN-45 cells [2] (inhibitor concentrations) is “inhibited in the lower concentration range of the antibody”. Also, the “effect of inhibitor on anti-SOD-induced apoptosis” value with MKN-45 cells [2] (FIG. 10) is reported as “inhibition”.
Take `CC[n+]1ccccc1-c1c2nc(c(-c3cccc[n+]3CC)c3ccc([n-]3)c(-c3cccc[n+]3CC)c3nc(c(-c4cccc[n+]4CC)c4ccc1[n-]4)C=C3)C=C2.[Cl-].[Cl-].[Cl-].[Cl-].[Cl-].[Mn+3]` [MnTE2PyP, Mn(III) meso-tetrakis(N-ethyl-2-pyridyl)porphyrin pentachloride]: in test [1], the “effect of inhibitor on anti-catalase-induced apoptosis” value is “inhibition” and the “effect of inhibitor on anti-SOD-induced apoptosis” value is recorded as “inhibition”.
With `N[C@@H](Cc1c[nH]cn1)C(=O)O` [histidine], in the test on MKN-45 cells [3], the “blocking of the supra-optimum drop of the concentration-dependent curves” value is given as “can be blocked”; the “blocking of the synergistic effect between anti-SOD and anti-catalase” value is recorded as “cannot be blocked”.
As for `NCCS(=O)(=O)O` [taurine], in test [1], the “effect of inhibitor on anti-catalase-induced apoptosis” value is “lacking inhibitory effect” and the “effect of inhibitor on anti-SOD-induced apoptosis” value is “lacking inhibitory effect”. Also, the “effect on the NO/peroxynitrite pathway in anti-SOD-induced apoptosis” value in the test on MKN-45 cells [2] (MKN-45, 50 mM taurine, FIG. 10) was “enhancing effect”. The “effect of inhibitor on apoptosis induced” value with MKN-45 cells [2] (higher antibody concentration (HOCl pathway)) was “inhibitory effect”. Further, the “effect of inhibitor on anti-SOD-induced apoptosis” value with MKN-45 cells [2] (FIG. 10) was “lacking inhabitability”.

B1: exogenous catalase: 1000 U/ml catalase from ox liver, added exogenously (protein, UniProt P00432 2-527, looked up)
Catalase: ADNRDPASDQMKHWKEQRAAQKPDVLTTGGGNPVGDKLNSLTVGPRGPLLVQDVVFTDEMAHFDRERIPERVVHAKGAGAFGYFEVTHDITRYSKAKVFEHIGKRTPIAVRFSTVAGESGSADTVRDPRGFAVKFYTEDGNWDLVGNNTPIFFIRDALLFPSFIHSQKRNPQTHLKDPDMVWDFWSLRPESLHQVSFLFSDRGIPDGHRHMNGYGSHTFKLVNANGEAVYCKFHYKTDQGIKNLSVEDAARLAHEDPDYGLRDLFNAIATGNYPSWTLYIQVMTFSEAEIFPFNPFDLTKVWPHGDYPLIPVGKLVLNRNPVNYFAEVEQLAFDPSNMPPGIEPSPDKMLQGRLFAYPDTHRHRLGPNYLQIPVNCPYRARVANYQRDGPMCMMDNQGGAPNYYPNSFSAPEHQPSALEHRTHFSGDVQRFNSANDDNVTQVRTFYLKVLNEEQRKRLCENIAGHLKDAQLFIQKKAVKNFSDVHPEYGSRIQALLDKYNEEKPKNAVHTYVQHGSHLSAREKANL
Consider B1, for which, in test [1], the “effect of inhibitor on anti-catalase-induced apoptosis” value is listed as “compensated” and the “effect of inhibitor on anti-SOD-induced apoptosis” value was “compensated”.
